Laboratory results from patent US9796717B2, “Tricyclic heterocycles as anticancer agents” (ICAHN SCHOOL OF MEDICINE AT MOUNT SINAI, priority 2013, dated 2017).
Like-named read-outs stand apart in the source and are kept apart here.

How the values were obtained:
H1650 lung cancer cells [1] = test system: H1650 lung cancer cells; set-up: % @ 20 μM: scale not given here; settings: cited from earlier work; for IC50: examples up to number 80 taken from PCT WO2013/025882, read-out: IC50 (μM), Cell Viability Data
[2] = test system: BALB/c hearts transplanted into fully allogeneic B6 recipients; test: Heart allograft survival; assay type: in vivo, mice; settings: 100 mg/kg i.p.; n=4; untreated rejected by day 8; p<0.05 vs control
Procedure: To test for a clinically relevant in vivo effect, BALB/c hearts were transplanted into fully allogeneic B6 recipients. While untreated animals rejected their grafts by day 8 n=4, the grafts in the mice treated with 100 mg/kg i.p. of Example 30 lasted 18 days n=4, p<0.05 vs control, a statistically and clinically significant effect.

EGFR-L858R/CCSP mice = test: In vivo lung cancer model (MRI tumor volume); settings: 100 mg/kg i.p. every other day for two weeks; DMSO control 20% increase
Procedure: The in vivo lung cancer model is described in Politi et al., Genes Dev. Jun. 1, 2006 20: 1496-1510. EGFR-L858R/CCSP mice were fed doxycycline-impregnanted food pellets to induce tumor formation. After 8-12 weeks, mice were imaged in a Bruker 4.7T Biospec scanner to confirm lung nodule development. After tumor confirmation, the compound of Example 30 was prepared in DMSO (Sigma) and administered i.p. at 100 mg/kg every other day for two weeks. After treatment, the mice were re-imaged by MRI, and pre-treatment and post-treatment lung volumes were calculated by visible lung opacity present in each axial image using Osirix 4.1.1. DMSO control animals show a 20% increase in tumor volume over two week treatment period. Animals treated with the compound of Example 30 show a 60% decrease in tumor volume over two week treatment period.

H1650 lung cancer cells [3] = test: Cell viability assay (MTT, IC50 determination); assay type: cell-based; settings: Homo sapiens, NCI-H1650, 48 h after drug treatment, examples 100-103
Procedure: Cell Viability Assays (IC50 Determination)
Cell viability assays were performed according to Denizot, F. and R. Lang, Journal of Immunological Methods, 1986. 89(22): p. 271-277. H1650 lung cancer cells were plated at 150,000 cells per well in a 12 well plate. Twenty-four hours after plating, cells were treated as described with increasing concentrations of drug and control. Forty-eight hours after drug treatment, cells were treated with 100 μL of 3-(4,5-Dimethylthiazol-2-yl)-2,5-diphenyltetrazolium bromide (MTT) and incubated for 2 hours at 37 C. The MTT solution was subsequently replaced with 300 μl of n-propyl alcohol and re-aliquoted to a 96 well plates. Spectrophotometric analysis of each solution was performed using a 96 well plate reader at 600 nm in triplicate. The examples up to number 80 in Table 1 below are taken from PCT WO2013/025882, published 21 Feb. 2013. They illustrate biological activities of compounds that share a tricyclic scaffold.

CD4 naïve cells = test: Induction of Treg (Foxp3+) from naïve CD4 T cells; assay type: cell-based; settings: control compounds, concentration not given; 3 days
Procedure: Example 30 has been tested for its ability to induce Treg from naïve CD4 T cells. […] Fifty thousand CD4 naïve cells (CD62Lhi,CD25 low, CD4 positive) were incubated with 2 ng/mL TGFβ, 1 ug/mL anti-CD3, 100 ng/mL IL-2, 50000 APCs per well and the compounds 10 μM, 5 μM and 2.5 μM concentrations. The cells were incubated for 3 days and then stained for CD4 and Foxp3 expression. Results were expressed as fold increase over the % induced in control (DMSO) wells (typically 20-25% Foxp3+). AKTi, a small molecule AKT inhibitor, was used as a positive control; it induced about a 4-fold increase. […] The effects of Example 30 on iTreg induction are amplified as the TGFβ concentration decreases.

IC50 (H1650 lung cancer cells [3]) | Compound | IC50 (H1650 lung cancer cells [1]; MTT, 48 h after drug treatment) | further results
 | O=S(=O)(N[C@H]1CCC[C@@H](N2c3ccccc3CCc3ccccc32)C1)c1ccc(OC(F)(F)F)cc1 (relative stereo) [Example 73 cis, cis-N-(3-(10,11-dihydro-5H-dibenzo[b,f]azepin-5-yl)cyclohexyl)-4-(trifluoromethoxy)benzenesulfonamide] | 5 µM | 
 | O=S(=O)(N[C@H]1CCC[C@H](N2c3ccccc3CCc3ccccc32)C1)c1ccc(OC(F)(F)F)cc1 (relative stereo) [Example 73 trans, trans-N-(3-(10,11-dihydro-5H-dibenzo[b,f]azepin-5-yl)cyclohexyl)-4-(trifluoromethoxy)benzenesulfonamide] | 15 µM | 
 | O=S(=O)(NCCCN1c2ccccc2CCc2ccc(Cl)cc21)c1cc(F)cc(F)c1 [Example 13, N-(3-(3-chloro-10,11-dihydro-5H-dibenzo[b,f]azepin-5-yl)propyl)-3,5-difluorobenzenesulfonamide] | 18 µM | 
 | Cc1ccc(S(=O)(=O)NCCN2c3ccccc3Sc3ccc(Cl)cc32)cc1 [Example 18, N-(2-(2-chloro-10H-phenothiazin-10-yl)pethyl)4-methylbenzenesulfonamide] | 24.4 µM | 
 | O=S(=O)(NCCCN1c2ccccc2CCc2ccc(Cl)cc21)c1ccc(Cl)cc1F [Example 28, N-(3-(3-chloro-10,11-dihydro-5H-dibenzo[b,f]azepin-5-yl)propyl)-4-chloro-2-fluorobenzenesulfonamide] |  | IC50 (μM), Cell Viability Data (H1650 lung cancer cells [1]; MTT, 48 h after drug treatment, examples up to number 80 taken from PCT WO2013/025882): INACTIVE
 | O=S(=O)(NCCCN1c2ccccc2CCc2ccc(Cl)cc21)c1ccc(OC(F)(F)F)cc1 [Example 30, N-(3-(3-chloro-10,11-dihydro-5H-dibenzo[b,f]azepin-5-yl)propyl)-4-(trifluoromethoxy)benzenesulfonamide] |  | graft survival [2]: 18 days; decrease in tumor volume over two week treatment period (EGFR-L858R/CCSP mice): 60%
 | O=S(=O)(NCCC=C1c2ccccc2Sc2ccccc21)c1ccc(OC(F)(F)F)cc1 [Example 50, N-(3-(9H-thioxanthen-9-ylidene)propyl)-4-(trifluoromethoxy)benzenesulfonamide] | ~15 µM | 
 | O=S(=O)(NCCCN1c2ccccc2CCc2ccc(Cl)cc21)c1cnc(Cl)c(Br)c1 [Example 63, 5-Bromo-6-chloro-N-(3-(3-chloro-10,11-dihydro-5H-dibenzo[b,f]azepin-5-yl)propyl)pyridine-3-sulfonamide] |  | % @ 20 μM (H1650 lung cancer cells [1]; 20 μM, taken from PCT WO2013/025882): 65% @ 20
20 µM | O=S(=O)(NCCCN1c2ccccc2CCc2cccnc21)c1ccc(OC(F)(F)F)cc1 [Example 100, N-(3-(5H-Benzo[b]pyrido[3,2-f]azepin-11(6H)-yl)propyl)-4-(trifluoromethoxy)benzenesulfonamide] |  | 
25 µM | O=S(=O)(NCCCN1c2ccccc2CCc2cccnc21)c1ccc(Cl)cc1 [Example 101, N-(3-(5H-Benzo[b]pyrido[3,2-f]azepin-11(6H)-yl)propyl)-4-chlorobenzenesulfonamide] |  | 
30 µM | O=S(=O)(NCCCN1c2ccccc2CCc2ncccc21)c1ccc(OC(F)(F)F)cc1 [Example 102, N-(3-(10,11-Dihydro-5H-benzo[b]pyrido[2,3-f]azepin-5-yl)propyl)-4-(trifluoromethoxy)benzenesulfonamide] |  | 
30 µM | O=S(=O)(NCCCN1c2ccccc2CCc2ncccc21)c1ccc(Cl)cc1 [Example 103, 4-Chloro-N-(3-(10,11-dihydro-5H-benzo[b]pyrido[2,3-f]azepin-5-yl)propyl)benzenesulfonamide] |  | 
 | O=C(CCCN1CCC(O)(c2ccc(Cl)cc2)CC1)c1ccc(F)cc1 [Haloperidol] |  | fold increase in iTreg over control (DMSO) wells (CD4 naïve cells): did not induce a statistically significant increase
